Assay results reported in publication PMC6037852, “Design of Diarylheptanoid Derivatives as Dual Inhibitors Against Class IIa Histone Deacetylase and β-amyloid Aggregation” (Frontiers in Pharmacology, 2018).

Columns and labels:
Aβ1-42 = target: T1, Aβ1-42 (Homo sapiens, UniProt P05067); assay: Inhibition of Aβ1-42 self-aggregation, thioflavin-T (ThT) fluorescence assay; assay type: biochemical; details: 24 h; for IC50: read-out: Beta-Amyloid Aggregation IC50; for inhibition at 10 µM: single concentration of 10 μM, read-out: Beta-Amyloid Aggregation Inhibition (%)
T1 construct: Aβ1-42 peptides were purchased from Kelowna International Scientific Inc; purchased Kelowna International Scientific Inc
T1 sequence (P05067 672-713 limits assumed): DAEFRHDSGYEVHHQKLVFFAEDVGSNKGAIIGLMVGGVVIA
Experimental: Inhibition of Aβ1-42 self-aggregation was measured by thioflavin-T (ThT) fluorescence assay ([Hudson et al., 2009]). Aβ1-42 peptides were purchased from Kelowna International Scientific Inc. To avoid Aβ1-42 self-aggregation before the start of the experiment, Aβ1-42 peptides were dissolved in hexafluoroisopropanol (HFIP) to a concentration of 1 mM. The clear solution containing the dissolved peptide was then aliquoted in micro centrifuge tube. The solution was evaporated under vacuum to remove HFIP to give monomeric Aβ1-42. The monomeric Aβ1-42 was dissolved in NaOH(aq) (60 mM) to give a stock solution (1 mM). The Aβ1-42 stock solution was diluted with 50 mM phosphate buffer (containing 0.15 M NaCl, pH 7.4) before use. Fresh ThT stock solution was prepared by dissolving ThT (Sigma, T3516) in phosphate buffer and filtrated through […] Nylon syringe filter. The ThT stock solution and 400 mM ethylenediaminetetraacetic acid (EDTA) were diluted into the phosphate buffer to generate the working solution as background. A mixture of working solution (ThT final concentration: 10 μM), Aβ1-42 stock solution (Aβ1-42 final concentration: 10 μM) and the tested compounds were incubated on BioShake iQ ThermoMixer (37°C, 700 rpm) for 24 h. Fluorescence was measured by Victor 2X microplate spectrophotometer (excitation λ = 440 nm, emission λ = 486 nm), and adapted for 96-well microtiter plates. The fluorescence intensities were recorded and the percent inhibition due to the presence of the inhibitors were calculated by the following formula: (1 - IFi/IFc) × 100% where IFi and IFc were the fluorescence intensities obtained for Aβ1-42 in the presence and in the absence of inhibitors after subtracting the background, respectively. The IC50 values were calculated by the linear regression model of the data. All experiments were performed in triplicate.

SH-SY5Y cells = details: 100 μM; ref Luchtman et al., 2013; cited from earlier work
[1] = test system: primary rat mesencephalic neurons; set-up: method as in Luchtman et al., 2013; details: 100 μM; ref Luchtman et al., 2013; cited from earlier work

SMILES	IC50 (Aβ1-42)	inhibition at 10 µM (Aβ1-42)	Cell viability of SH-SY5Y cells (SH-SY5Y cells)	Viability of primary rat mesencephalic neurons [1]
O=c1c(O)c(-c2ccc(O)cc2O)oc2cc(O)cc(O)c12 [Morin, morin, reference compound]	8.8 ± 0.7 µM	56.9 ± 5.9%	–	–
O=C(CCCCCCC(=O)Nc1ccccc1)NO [SAHA, suberoylanilide hydroxamic acid, reference compound]	> 10 µM	-13.3 ± 1.8%	–	–
C[n+]1ccc(-c2ccccc2)cc1.[I-] [1-methyl-4-phenylpyridinium iodide]	–	–	80%	roughly 75%
